The values below come from BindingDB's records for patent US9180116 (Cayman Chemical, 2015).

Holding throughout (settings): 37 °C
Experiment [1] has as its target T1, Prostaglandin E2 receptor EP4 subtype (Rattus norvegicus, UniProt P43114). The experiment in a line: cAMP Assay.
Procedure: Seed cells on an EP2 or EP4 STEP plate at a density of 40,000-80,000 cells/well in 200 uL of reduced serum medium containing 0.5% FBS. Place the plate in a 37° C. incubator with 5% CO2 and incubate overnight. […] After 16-18 hours of incubation, aspirate the culture media from each well. […] Add 200 ul of culture medium containing 500 uM IBMX (an inhibitor of cAMP phosphodiesterase) and different concentration of test compounds to the assigned wells. For each test compound, at least 8 concentrations starting at highest 10 M and lowest 0.01 pM were tested. In addition each concentration had triplicates. […] Incubate the cells in a cell culture incubator for 30 minutes. […] Centrifuge the plate at 1,000x rpm for 10 minutes. […] Aspirate the supernatant.
Experiment [2] has as its target T1, Prostaglandin E2 receptor EP4 subtype. The experiment in a line: SEAP Activity Assay.
Procedure: (§1) 1. Seed cells on an EP2 or EP4 STEP plate at a density of 40,000-80,000 cells/well in 200 ul of reduced serum medium containing 0.5% FBS. Place the plate in a 37° C. incubator with 5% CO2 and incubate overnight. 2. After 16-18 hours of incubation, aspirate the culture media from each well. 3. Add 200 ul of culture medium containing different concentration of test compounds to the assigned wells. For each test compound, at least 8 concentrations starting at highest 10 M and lowest 0.01 pM were tested. In addition each concentration had triplicates. […] 4. […] Cover the plate with the lid.
For experiment [3], the target named is Prostaglandin E2 receptor EP2 subtype (Rattus norvegicus, UniProt Q62928). The experiment in a line: SEAP Activity Assay.
Chain of Prostaglandin E2 receptor EP2 subtype (Q62928 whole entry): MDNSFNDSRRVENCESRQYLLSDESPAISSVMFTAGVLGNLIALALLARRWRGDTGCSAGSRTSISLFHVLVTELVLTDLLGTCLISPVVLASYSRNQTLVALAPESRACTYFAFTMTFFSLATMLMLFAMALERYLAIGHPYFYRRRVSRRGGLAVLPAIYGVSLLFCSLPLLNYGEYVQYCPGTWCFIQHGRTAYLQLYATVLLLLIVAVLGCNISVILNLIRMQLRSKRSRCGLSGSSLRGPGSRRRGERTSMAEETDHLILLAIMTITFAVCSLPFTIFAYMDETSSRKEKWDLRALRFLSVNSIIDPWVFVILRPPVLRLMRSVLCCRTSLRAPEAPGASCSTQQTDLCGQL
Procedure: as §1

T1 sequence (P43114 whole entry): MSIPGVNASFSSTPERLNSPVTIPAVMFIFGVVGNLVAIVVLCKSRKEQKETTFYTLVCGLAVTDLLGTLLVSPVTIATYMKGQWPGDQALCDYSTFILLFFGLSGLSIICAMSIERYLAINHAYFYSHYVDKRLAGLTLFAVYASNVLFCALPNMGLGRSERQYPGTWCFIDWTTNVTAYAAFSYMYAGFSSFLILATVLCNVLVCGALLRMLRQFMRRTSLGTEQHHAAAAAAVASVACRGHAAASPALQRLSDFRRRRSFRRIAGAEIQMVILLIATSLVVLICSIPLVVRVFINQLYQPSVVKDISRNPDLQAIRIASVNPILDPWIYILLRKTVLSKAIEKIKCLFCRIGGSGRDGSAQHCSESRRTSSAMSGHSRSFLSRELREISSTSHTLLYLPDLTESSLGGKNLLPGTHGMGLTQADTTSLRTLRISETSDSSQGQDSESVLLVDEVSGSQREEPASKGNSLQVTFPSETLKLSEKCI

On to `CCC#CC[C@H](C)[C@H](O)/C=C/[C@H]1CC(F)(F)C(=O)N1CCCc1ccc(C(=O)O)s1` [US9180116, 24D], for which the results for the EC50 in experiment [1], in experiment [2] and in experiment [3] were 0.00073 µM, 0.00011 µM and 0.763 µM, respectively.

Compound `C[C@@H](CCc1ccccc1)[C@H](O)/C=C/[C@H]1CC(F)(F)C(=O)N1CCCc1ccc(C(=O)O)s1` [US9180116, 37C] gave an EC50 in experiment [1] of 0.00015 µM.

Consider `C[C@@H](CCc1ccccc1)[C@@H](O)/C=C/[C@H]1CC(F)(F)C(=O)N1CCCc1ccc(C(=O)O)s1` [US9180116, 37D], for which the figures for the EC50 in experiment [1] and in experiment [3] were 0.198 µM and 0.743 µM, respectively.
